From patent US20130095493A1, “IDENTIFICATION OF THE GENE NOTCH3 AS A NOVEL BIOMARKER FOR HUMAN METASTATIC MELANOMA” (THE JOHNS HOPKINS UNIVERSITY, priority 2011, published 2013)
Entries after “also recorded” stand apart in the source; their conditions may differ.

Key:
Assay type in all cases: cell-based, human
[1] = system: Notch signaling (4XCBF-1 Notch luciferase reporter in GFP-1205Lu co-cultured with RFP-HUVEC); experiment: Notch luciferase reporter co-culture (dual-luciferase assay)
Procedure: GFP-1205Lu was transfected using Lipofectamine 2000 with 4XCBF-1 Notch luciferase reporter (kindly provided by Dr. Diane Hayward, Johns Hopkins University) and Renilla control plasmid (2 μg total cDNA/well). Cells were transfected for 4 hr, then harvested by trypsinization and co-cultured with RFP-HUVEC at varying ratios for 24 hr in EGM-2. Cells were washed with PBS, snap-frozen, and stored at −80° C. Co-cultures were lysed using the Dual-Luciferase Reporter Assay System (Promega) and analyzed on a 1450 Microbeta plate reader (Perkin Elmer). The specificity of Notch signaling was verified using the pan-Notch inhibitor DAPT and 0.1% DMSO as a vehicle control.
The transcriptional activity of Notch is mediated by the CBF-1 promoter sequence upstream of target genes. CBF-1 recruits CSL transcriptional repressors which inactivate gene expression in the absence of NICD. […] Thus, by utilizing a four-tandem repeat of CBF-1 to drive luciferase expression during a transient transfection, canonical Notch signaling can be directly quantified by chemiluminescence activity in a target cell population. […]
To quantify Notch signaling within the model system, GFP-1205Lu was transiently transfected with 4XCBF-1 Notch luciferase reporter (PJH23A) and co-cultured with RFP-HUVEC for 24 hours. […]

[2] = system: RFP-HUVEC networking phenotype in GFP-1205Lu:RFP-HUVEC co-culture; experiment: Melanoma-endothelial co-culture networking phenotype; conditions: 10 μM DAPT vs 0.1% DMSO; 1:1 GFP-1205Lu:RFP-HUVEC co-culture
Procedure: For co-culture experiments, various GFP-labeled melanoma cell lines were co-cultured with RFP-HUVEC at a 1:1 ratio to 95% confluency in EGM-2. Melanoma cells grown alone were cultured in EGM-2 to control for medium effects. Cells were co-cultured for 48 hours before sorting by FACS into pure populations. The sorted cell populations were divided and stored at −80° C. for mRNA and protein analysis.
(§1) In previous investigations, we observed RFP-HUVEC communicating in a concerted fashion with metastatic melanoma cells to create a networking phenotype during 48 hrs of co-culture. It was thought that understanding the molecular determinants of this communication could lead to pharmacological targets for the prevention of melanoma-endothelial crosstalk in the clinical setting. To determine whether Notch signaling is involved in mediating the networking phenotype, GFP-1205Lu and RFP-HUVEC were co-cultured in 0.1% DMSO (vehicle) or 10 μM DAPT. These cells were also cultured alone in identical media to determine whether these conditions elicited any aberrant growth not attributable to co-culture.

[3] = system: GFP-1205Lu or RFP-HUVEC grown alone; experiment: Growth of cells cultured alone under DAPT; conditions: 10 μM DAPT vs 0.1% DMSO
Source text: as §1

C[C@H](NC(=O)Cc1cc(F)cc(F)c1)C(=O)N[C@H](C(=O)OC(C)(C)C)c1ccccc1 [DAPT]
Inhibition of quantified Notch signaling ([1]; 10 μM DAPT vs 0.1% DMSO vehicle): effectively inhibiting all quantified Notch signaling
Effect on co-culture stimulated Notch signaling (luciferase reporter) ([1]; GFP-1205Lu with 4XCBF-1 reporter, RFP-HUVEC co-culture 24 hours, DMSO vehicle had no effect): completely abrogated the co-culture stimulated Notch signaling; also recorded: completely abrogated all Notch signaling observed
Effect on RFP-HUVEC networking phenotype in co-culture [2]: drastically affected; also recorded: RFP-HUVEC network disruption
Effect on growth of GFP-1205Lu or RFP-HUVEC grown alone [3]: little effect; also recorded: no discernable difference
